What was measured:
rabbit = assay: Immunisation of a rabbit with urea-adjuvated BZLF1 polypeptide, serum tested in the immunoblot; type: in vivo; conditions: intramuscular, 8M urea
Experimental: In order to test the suitability of urea-adjuvated BZLF-1 polypeptide, 30 μg of BZLF1 polypeptide in 8M urea was adjuvated with Hunters Titermax as specified by the manufacturer (Sigma) and administered intramuscularly to a rabbit. The animal was re-immunised with the same immunogen 4 and 8 week as after the basic immunisation. After a further 3 weeks, blood was taken from the animal and the serum obtained therefrom was tested in different dilutions (1:2000; 1:10000 and 1:50000) in the immunoblot for the presence of BZLF1 specific antibodies. For this purpose BZLF1 polypeptide produced recombinantly in E. coli in various concentrations (20 ng, 100 ng and 500 ng) was separated in a 12.5% SDS gel and the proteins were then transferred onto nitrocellulose. After the protein transfer the still-free protein binding sites on the nitrocellulose were saturated by incubating with a 5% solution of skimmed milk powder in TBS (500 mM NaCl, 25 mM Tris pH 7.5), shaking slightly. The Blot was then washed four times with TTBS for at least 10 min before it was incubated for 1 to 12 hours with the corresponding dilution of the rabbit serum in TBS. […]

PBMC [1] = assay: IFN-γ ELIspot of PBMC incubated with urea; type: cell-based, human; conditions: 24 hours; for IFN-γ secretion from PBMCs: donor one
Experimental: Furthermore, it should be clarified by ELIspot analyses whether urea in populations of purified PBMCs triggers the secretion of cytokines, especially IFN-γ. For this purpose, 96-well nitrocellulose-coated microtitre plates, as described in detail in Example 2, were coated with a monoclonal anti-human IFN-γ antibody (Hölzl, Cologne) (5 μg/ml in PBS) and incubated overnight at 4° C. The antibody solution was pipetted off and the plates were washed four times using 200 μl PBS/formulation in each case. In a following step non-specific binding sites were blocked by adding 200 μl of blocking medium in each case (RPMI with 10% FCS) during a one-hour incubation at 37° C.
PBMC of a healthy donor ([…]) were taken up in a concentration of respectively 2×10^5 purified PBMC/150 μL in T-cell medium containing different urea concentrations (0, 0.05, 0.1, 0.2, 0.3, 0.4, 0.8, and 1.6 mol/liter) (5 replicates each) and the stimulation formulations were incubated for 24 hours in an incubator with a humidified atmosphere with 5% CO2 gassing at 37° C. An 8M urea stock solution which was mixed with 2M NaCl and 2 mM DTE was used for these experiments. The cell suspension was then drawn off and any cells still adhering were removed by washing six times (in each case 200 μl PBS with 0.1% Tween 20, 3 min incubation with washing buffer in each case). The secondary biotinylated antibody (1 μg/ml in PBS, 100 μl/formulation in each case) was then added; the plates were incubated for 2 hours at RT, then washed (6 times, 200 μl PBS/formulation in each case) and incubated for 1 hour with a streptavidin alkaline phosphatase (AP) conjugate (1 μg/ml in PBS; 100 μl/formulation in each case; Hölzl, Cologne). After a last washing step (6 times 200 μl PBS/formulation in each case), the colour reaction took place by adding the enzyme substrate NBT/BCIP (Boehringer, Mannheim). For this purpose a staining solution was prepared [200 μl NBT/BCIP-stock solution to 10 ml staining buffer (0.1 M tris-buffer, pH 9.5 with 0.05 M MgCl2, 0.1 M NaCl)] and 100 μl/formulation was used in each case.
After 10 min the calorimetric reaction was stopped by washing the plates with deionised water (Biosys 2000, BioSys, Karben).

PBMC [2] = assay: Influence of urea on the vitality of PBMC (Trypan blue counting); type: cell-based
Experimental: In order to test the influence of urea on the cell vitality, PBMC, as described in Example 2, were purified from the heparinised whole blood of 3 healthy donors ([…]) and respectively 1×10^6 cells in four replicates in T-cell medium (RPMI 1640 with 5% human serum, 2 mM glutamine and 100 U/ml penicillin/100 μg/ml streptomycin (all components from PanSystems, Aidenbach)) was mixed with increasing concentrations of urea (0, 0.05, 0.1, 0.2, 0.3, 0.4, 0.8 or 1.6 mol/liter) and incubated in wells of a 48-well microtitre plate for 17 hours in an incubator with humidified atmosphere and 5% CO2 gassing at 37° C. An 8M urea stock solution which was mixed with 2M NaCl and 2 mM DTE was used for these experiments. The cells were then resuspended in the cultivation formulation by repeatedly pipetting the medium on and off and the total number of cells and the ratio of the living to dead cells was determined using a Neubauer “improved” counting chamber after staining with a Trypan blue solution (0.5% w/v).

NC(N)=O [urea]
toxicity of the urea contained in the injection solution for the experimental animal (rabbit): non-toxic
IFN-γ secretion from PBMCs (PBMC [1]; urea 0.05 mol/liter): 26.2 Spots/2 × 10^6 cells
IFN-γ secretion from PBMCs (PBMC [1]; urea 0.1 mol/liter): 29.6 Spots/2 × 10^6 cells
IFN-γ secretion from PBMCs (PBMC [1]; urea 0.2 mol/liter): 26.4 Spots/2 × 10^6 cells
IFN-γ secretion from PBMCs (PBMC [1]; urea 0.3 mol/liter): 11.0 Spots/2 × 10^6 cells
IFN-γ secretion from PBMCs (PBMC [1]; urea 0.4 mol/liter): 18.2 Spots/2 × 10^6 cells
IFN-γ secretion from PBMCs (PBMC [1]; urea 0.8 mol/liter): 14.6 Spots/2 × 10^6 cells
IFN-γ secretion from PBMCs (PBMC [1]; urea 1.6 mol/liter): 13.4 Spots/2 × 10^6 cells
release of IFN-γ from cultures of peripheral blood mononuclear cells (PBMC [1]; urea 0.05 to 1.6 mol/liter): no significantly increased release of IFN-γ
number of dead cells (PBMC [2]): significantly increased number of dead cells
Living/dead (PBMC [2]; donor one, urea 0.05 mol/liter, 17 hours): 2.2
Living/dead (PBMC [2]; donor one, urea 0.1 mol/liter, 17 hours): 55
Living/dead (PBMC [2]; donor one, urea 0.2 mol/liter, 17 hours): 3.6
Living/dead (PBMC [2]; donor one, urea 0.3 mol/liter, 17 hours): 1.8
Living/dead (PBMC [2]; donor one, urea 0.4 mol/liter, 17 hours): 0.2
Living/dead (PBMC [2]; donor one, urea 0.8 mol/liter, 17 hours): 0.04
Living/dead (PBMC [2]; donor one, urea 1.6 mol/liter, 17 hours, 0 = exclusively dead cells): 0
Living/dead (PBMC [2]; donor three, urea 0.05 mol/liter, 17 hours): 11.7
Living/dead (PBMC [2]; donor three, urea 0.1 mol/liter, 17 hours): 41.3
Living/dead (PBMC [2]; donor three, urea 0.2 mol/liter, 17 hours): 30.2
Living/dead (PBMC [2]; donor three, urea 0.3 mol/liter, 17 hours): 9
Living/dead (PBMC [2]; donor three, urea 0.4 mol/liter, 17 hours): 0.2
Living/dead (PBMC [2]; donor three, urea 0.8 mol/liter, 17 hours): 0.02
Living/dead (PBMC [2]; donor three, urea 1.6 mol/liter, 17 hours, 0 = exclusively dead cells): 0
Living/dead (PBMC [2]; donor two, urea 0.05 mol/liter, 17 hours): 15.9
Living/dead (PBMC [2]; donor two, urea 0.1 mol/liter, 17 hours): 1.7
Living/dead (PBMC [2]; donor two, urea 0.2 mol/liter, 17 hours): 6.6
Living/dead (PBMC [2]; donor two, urea 0.4 mol/liter, 17 hours): 1
Living/dead (PBMC [2]; donor two, urea 0.8 mol/liter, 17 hours): 0.1
Living/dead (PBMC [2]; donor two, urea 1.6 mol/liter, 17 hours): 0.06
dead versus living cells in the PBMC cultures (PBMC [2]; from a urea concentration of 0.4 mol/liter, 17 hours, regardless of the donor): more dead than living cells
ratio of living to dead cells compared to the untreated cells (PBMC [2]; urea 0 to 0.2 mol/liter, 17 hours): no significant reduction
total number of cells (cytolytic effect) (PBMC [2]; urea concentrations above 0.3 mol/liter, 17 hours): significant reduction in the total number of cells
